Key:
AR-V7 mRNA = test: Androgen receptor RNA level expression (qRT-PCR) in 22Rv1: AR-V7; assay type: cell-based; conditions: 22Rv1, 1 μM, 48 h; for mrna remaining at 1 µM: Homo sapiens, normalized to untreated control (vehicle/DMSO)
Description: The prostate cancer cell line 22Rv1 was treated for 48 h with 1 μM Example compound 1, 1/1, 1/2, 2/1, 2/2, 2/3, 2/4, 2/5, 2/6, 2/7, 2/8, 2/9 and 2/10 and the reference compounds SR2211 and XY018 (Nat. Med. 2016; 22:488). RNA was extracted using the RNA isolation kit XS (Macherey-Nagel) and following the manufacture's manual. RNA quantity was measured with the Nanodrop before reverse transcription using Superscript II (Invitrogen #100004925). For the quantitative real-time PCR with SYBR-Green (Qiagen #204074), the following primers were used: AR forward-ACATCAAGGAACTCGATCGTATCATTGC and reverse-TTGGGCACTTGCACAGAGAT, AR-V7: forward-CCATCTTGTCGTCTTCGGAAATGTTATGAAGC and reverse-TTTGAATGAGGCAAGTCAGCCTTTCTT. The qRT-PCR proceeded as follows: denaturation for 5 min 95° C.; 40 cycles of “20 sec at 95° C. and 15 sec at 60° C.” and at the end of the last cycle, the melting temperature of the products was determined by gradually increasing it from 60° C. to 99° C. CT values from all samples were normalized to two different reference (housekeeping) genes using the mean CT value of the GAPDH and YWHAZ (reference genes). Next the values are normalized to the untreated control (vehicle/DMSO).

[1] = tested on: prostate cancer cell line PC3; test: Oncolead sulforhodamin B growth inhibition, PC3; assay type: cell-based; conditions: sulforhodamin B assay; 72 and 120 h treatment; read-out: GI50 range PC3
Description: (§1) Cell growth was assessed by measuring protein content using sulforhodamin B. Growth inhibition was calculated by (TCMD−T0)/TNCT72h−T0)*100% with TCMD is the tumor growth at 72 h with the respective compound concentration. To is the protein content of the cell line before treatment and TNCT72h is the tumor growth of the DMSO control.

RORγt = molecular target: T1, RORγt (Homo sapiens, UniProt P51449); test: RORγt inhibition, Indigo Biosciences Human RAR-related Orphan Receptor, Gamma Reporter Assay System; assay type: cell-based; conditions: luciferase reporter cells, 22-24 h incubation; read-out: IC50 range, RORγt assay
T1 sequence (P51449 269-518 limits assumed): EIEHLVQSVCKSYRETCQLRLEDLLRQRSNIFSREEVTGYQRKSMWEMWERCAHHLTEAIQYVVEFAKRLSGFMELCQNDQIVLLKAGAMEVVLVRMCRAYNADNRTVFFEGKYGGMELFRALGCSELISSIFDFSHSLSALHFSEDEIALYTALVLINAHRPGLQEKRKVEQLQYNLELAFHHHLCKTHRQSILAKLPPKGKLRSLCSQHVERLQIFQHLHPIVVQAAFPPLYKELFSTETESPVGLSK
Description: The in vitro inhibition of RORγt was measured using Indigo Biosciences Human RAR-related Orphan Receptor, Gamma Reporter Assay System (Product #11304001-32) as described in the technical manual. In brief, 200 μL of Reporter Cells is dispensed into wells of the assay plate and preincubated for 4-6 h. Following the pre-incubation period, culture media are discarded and 200 μL/well of the prepared 1×-concentration treatment media are added. Following 22-24 h incubation, treatment media are discarded and Luciferase Detection Reagent is added. The intensity of light emission (in units of ‘Relative Light Units’; RLU) from each assay well is quantified using a plate-reading luminometer. Average values of RLU were determined for each treatment concentration. Non-linear regression analyses were performed and IC50 values determined using GraphPad Prism software. Provided inverse-agonists ursolic acid served as positive control.

[2] = tested on: prostate cancer cell line DU145; test: Oncolead sulforhodamin B growth inhibition, DU145; assay type: cell-based; conditions: Homo sapiens, DU-145; sulforhodamin B assay; 72 and 120 h treatment; read-out: GI50 range DU145
Description: as §1

IL-17F = test: Cytokine assay, human PBMC stimulated with PHA: IL-17F; assay type: cell-based; conditions: PHA-activated, 48 hours, read-out: IL-17F inhibition (IC50 range)
Description: Peripheral blood mononuclear cells (PBMC) from healthy human donors were purified using Accuspin™ System-Histopaque-1077 (Sigma) according to the protocol recommended by the manufacturer. Purified PBMC were then washed twice with phosphate-buffered saline (PBS) and resuspended in RPMI1640 culture medium supplemented with 10% dialyzed heat inactivated fetal calf serum, 1.5 mM L-glutamine, 100 U penicillin/mL and […] streptomycin/mL (all from PAN Biotech, Aidenbach, Germany). For stimulation, PBMC were seeded at 1×10^5 cells/well, activated with 2 gg/mL phytohaemagglutinin (PHA, Sigma) and incubated with the test compounds for 48 hours. IL-17A, IL-17F and INFγ were then determined in the culture supernatant using a Luminex BioPlex system, following the manufacturer's instructions (BioRad, Munich, Germany). To determine the IC50, compounds were titrated semilogarithmically.
Cytokines were determined in the aforementioned culture supernatant using the following methods: IL-17A was measured using the human homodimer IL-17A ELISA Ready Set Go Kit from cBioscience (Frankfurt, Germany); IL-17F using the human IL-17F ELI-Pair from Holzel Diagnostica GmbH (K51n, Germany); and IFNγ using the OptEIA human IFN-g ELISA from BD Bioscience (Heidelberg, Germany), all following the manufacturer's instructions.

AR-FL protein = test: Androgen receptor protein expression (western blot) in 22Rv1: AR-FL; assay type: cell-based, human; conditions: 22Rv1, 6 μM, 48 h; for AR-FL protein level: western blot quantification
Description: After 48 h, cell were lysed using cell extraction buffer (Life Technologies #FNN0011) for western blot. […] The membrane is then incubation for 1 hour in blocking buffer (5% milk in 20 mM Tris, 150 mM NaCl, pH 7.5, 0.05% Tween 20 [TBS-T]). After this incubation, the primary antibody is added and incubated overnight at 4° C. After washing, the membrane was incubated with the secondary antibody for 1 h. Visualization of the bands was performed using the femto maximum sensitivity substrate reagent and the luminescence signal recorded with the Fusion FX7 (Vilber). For protein quantification, InageJ was used.

Row | AR-V7 mRNA expression (AR-V7 mRNA) | GI50 [1] [nM] | IC50 (RORγt) [nM] | GI50 [2] [nM] | IC50 (IL-17F) [nM] | Structure (SMILES) | mrna remaining at 1 µM (AR-V7 mRNA) [%] | AR-FL protein levels (AR-FL protein) | AR-FL protein level (AR-FL protein)
1 | strong reduction | < 25 | 10 to 100 | < 25 | < 25 | CC(C)(O)CCn1ncc(-c2onc(-c3c(F)cccc3Cl)c2-c2ncccn2)c1C(F)(F)F [2/8] | 34.8 | strong reduction | 0.421
2 | strong reduction | < 25 | < 10 | < 25 | < 25 | COC(=O)c1c(-c2c(F)cccc2Cl)noc1-c1cnn(-c2cccc(Cl)c2)c1C(F)(F)F [Example 1, Methyl 3-(2-chloro-6-fluorophenyl)-5-(1-(3-chlorophenyl)-5-(trifluoromethyl)-1H-pyrazol-4-yl)isoxazole-4-carboxylate] | 37 | strong reduction | 0.474
3 | strong reduction | < 25 | < 10 | < 25 | < 25 | Fc1cccc(Cl)c1-c1noc(-c2cnn(-c3cccc(Cl)c3)c2C(F)(F)F)c1-c1nccs1 [Example 1/1] | 39.5 | strong reduction | 0.482
